Patent US20250154109A1, “SODIUM CHANNEL BLOCKING COMPOUNDS, DERIVATIVES THEREOF, AND METHODS OF THEIR USE” (LATIGO BIOTHERAPEUTICS, INC, priority 2022, published 2025)

Key:
rat plasma protein = test: Rat plasma protein binding by equilibrium dialysis; assay type: in vitro ADME; conditions: for Rat Plasma, Unbound %: equilibrium dialysis
Description: (§1) Table 3 presents the human and rat plasma protein binding data (% unbound) for the compounds of Table 2.
(§2) Comparator compounds A, B, C have been previously reported as inhibitors of Na, 1.8 in WO2020/092667. Comparator D, not previously reported, is offered as an additional sulfonamido example.

human plasma protein = test: Human plasma protein binding by equilibrium dialysis; assay type: in vitro ADME; conditions: equilibrium dialysis
Description: as §1, §2

human Nav1.8 = human Nav1.8 (Homo sapiens, UniProt Q9Y5Y9); test: Sophion Qpatch II assay (automated patch clamp); assay type: cell-based; conditions: resting state block (TP1 measurement), human Nav1.8 HEK293 cells, read-out: P1 IC50
human Nav1.8, sequence (Q9Y5Y9 whole entry): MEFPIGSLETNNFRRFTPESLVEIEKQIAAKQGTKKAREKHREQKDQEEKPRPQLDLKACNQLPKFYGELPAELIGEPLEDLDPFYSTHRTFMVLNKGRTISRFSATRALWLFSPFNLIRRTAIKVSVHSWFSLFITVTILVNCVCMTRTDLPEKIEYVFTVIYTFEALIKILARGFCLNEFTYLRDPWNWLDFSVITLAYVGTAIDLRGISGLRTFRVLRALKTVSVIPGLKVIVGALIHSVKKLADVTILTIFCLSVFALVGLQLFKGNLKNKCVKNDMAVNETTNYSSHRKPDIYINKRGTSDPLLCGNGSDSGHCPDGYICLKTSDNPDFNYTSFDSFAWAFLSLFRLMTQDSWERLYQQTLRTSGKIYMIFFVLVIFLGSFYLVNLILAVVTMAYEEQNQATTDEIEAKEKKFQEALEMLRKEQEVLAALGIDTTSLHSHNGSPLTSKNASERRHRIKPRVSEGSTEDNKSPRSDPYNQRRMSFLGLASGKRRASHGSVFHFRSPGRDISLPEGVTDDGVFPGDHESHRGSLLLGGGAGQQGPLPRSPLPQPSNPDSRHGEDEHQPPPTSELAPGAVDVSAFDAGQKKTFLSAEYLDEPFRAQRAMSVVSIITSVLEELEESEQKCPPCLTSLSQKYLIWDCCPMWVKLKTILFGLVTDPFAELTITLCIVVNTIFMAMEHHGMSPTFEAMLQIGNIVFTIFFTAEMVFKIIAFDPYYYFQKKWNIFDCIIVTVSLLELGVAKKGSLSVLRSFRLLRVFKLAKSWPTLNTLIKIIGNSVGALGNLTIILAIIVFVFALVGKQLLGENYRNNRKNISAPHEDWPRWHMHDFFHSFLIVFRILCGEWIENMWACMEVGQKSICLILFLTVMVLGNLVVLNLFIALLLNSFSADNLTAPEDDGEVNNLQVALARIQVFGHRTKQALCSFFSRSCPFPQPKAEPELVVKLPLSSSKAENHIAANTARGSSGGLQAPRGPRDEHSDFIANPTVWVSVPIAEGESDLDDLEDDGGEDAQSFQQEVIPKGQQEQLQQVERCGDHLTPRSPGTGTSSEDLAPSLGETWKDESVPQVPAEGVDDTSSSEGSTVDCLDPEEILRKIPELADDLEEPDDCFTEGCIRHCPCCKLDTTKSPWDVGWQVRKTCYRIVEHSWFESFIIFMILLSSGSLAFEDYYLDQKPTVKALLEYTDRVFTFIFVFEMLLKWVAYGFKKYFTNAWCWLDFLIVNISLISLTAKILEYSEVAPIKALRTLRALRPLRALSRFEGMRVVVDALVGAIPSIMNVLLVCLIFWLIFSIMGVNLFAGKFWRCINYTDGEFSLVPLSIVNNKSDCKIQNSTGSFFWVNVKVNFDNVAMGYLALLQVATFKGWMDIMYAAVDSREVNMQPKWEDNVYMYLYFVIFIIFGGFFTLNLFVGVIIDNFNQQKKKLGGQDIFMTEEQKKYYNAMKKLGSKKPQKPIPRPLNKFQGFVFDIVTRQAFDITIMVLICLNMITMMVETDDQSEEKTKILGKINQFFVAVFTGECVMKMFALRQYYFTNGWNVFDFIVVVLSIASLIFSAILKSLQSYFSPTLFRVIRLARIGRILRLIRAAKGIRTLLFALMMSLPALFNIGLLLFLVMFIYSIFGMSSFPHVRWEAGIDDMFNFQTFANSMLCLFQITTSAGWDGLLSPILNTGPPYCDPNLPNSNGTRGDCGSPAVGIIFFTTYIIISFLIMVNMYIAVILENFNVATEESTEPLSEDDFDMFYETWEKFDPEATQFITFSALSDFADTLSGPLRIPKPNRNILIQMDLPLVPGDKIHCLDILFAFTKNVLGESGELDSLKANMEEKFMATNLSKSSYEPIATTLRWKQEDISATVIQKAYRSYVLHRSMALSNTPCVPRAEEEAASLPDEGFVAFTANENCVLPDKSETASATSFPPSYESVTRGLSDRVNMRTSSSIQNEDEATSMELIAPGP
Experimental: Compounds were tested on recombinant human Nav1.8/01 stably transfected HEK293 (Eurofins, CYL3025, St. Charles, MO) cells using the Qpatch II system (Sophion Bioscience A/S, Ballerup—Denmark), an automated patch clamp device. Cells were cultured at 37° C./5% CO2 in DMEM/F-12 supplemented with 10% fetal bovine serum, lx Non-Essential Amino Acids, and selection antibiotics (0.625 μg/mL Puromycin, 400 μg/mL Geneticin, and 100 μg/mL Hygromycin). One or two days prior to recording, cells were moved to a lower temperature 30° C./5% CO2 incubator to increase surface expression of the channels. On the day of the recordings, cells in culture dishes were washed twice with Ca^2+—Mg^2+ free DPBS and treated with Detachin (Genlantis, San Diego) for 3 minutes and then resuspended in Serum Free Medium (EX-CELL® ACF CHO Medium for Cell Culture (Sigma-Aldrich) supplemented with 0.04 mg/mL soybean trypsin Inhibitor and 25 mM HEPES (all components supplied by Sigma-Aldrich, St. Louis, MO) and allowed to recover for a minimum of 20 minutes in the onboard Qstirrer. All experiments were performed at ambient temperature. Intracellular solution contained (mM): CsCl, 50; CsF, 90; MgCl2, 2; EGTA, 5; HEPES, 10; pH adjusted to 7.2 with CsOH. Extracellular solution contained (mM): NaCl, 137; KCl, 4; CaCl2), 3.8; MgCl2, 1; HEPES, 10; Glucose, 10; pH adjusted to 7.4 with NaOH. 500 nM tetrodotoxin (TTX) was added to the extracellular solution to block endogenous TTX-sensitive sodium currents.
Compounds were tested in an interleaved manner across two cohorts of wells to develop an aggregate 8-point concentration response curve. Final concentrations include 0.5% DMSO and 0.03% pluronic Acid. The concentration range spanned a range from 0.01-300 nM. Compounds were diluted 1:10 with extracellular solution within their respective cohort. (R)-2-(4-fluoro-2-methylphenoxy)-N-(3-(S-methylsulfonimidoyl)phenyl)-5-(trifluoromethyl)nicotinamide served as a positive control while DMSO (0.5% by volume) served as a vehicle control to ascertain assay performance.
Whole cell patch clamp recordings were conducted according to Sophion standard procedure for Qpatch II®. Cells were held at a holding potential of −120 mV. A depolarizing step to 10 mV for 30 ms was applied (TP1 measurement), followed by a hyperpolarization step to −100 mV for 20 ms. Due to instability observed at long depolarized potentials, there were no second TP2 measurements attempted. Inter-sweep interval was 15 sec. Following establishment of the whole-cell configuration in extracellular solution, cells were washed twice in extracellular solution containing 0.5% DMSO and 0.03% pluronic acid to stabilize the baseline current. Compounds were then applied by the Qpatch II system into each well in an ascending manner within cohort and the current was recorded for five minutes for each concentration. Percent of current remaining was determined by taking the average of the last 5 sweeps within each concentration and normalizing to the latest pre-compound saline period. The potency of the compounds was assessed on resting state block (TP1 measurement) only to obtain IC50 values. Wells whose initial sodium current magnitude were below 2 nA or whole cell resistance fell below 100 MQ were excluded from analysis.
Examples 220 to 224, Examples 237 to 257 and Example 259 are assayed using Sophion Qpatch II assay described above.

| SMILES | IC50 (human Nav1.8) | further results |
| --- | --- | --- |
| Cc1nc(N2CCCC(F)(F)CC2)c(C(=O)Nc2ccnc(S(N)(=O)=O)c2)cc1Cl [Compound C, reference compound] |  | Rat Plasma, Unbound % (rat plasma protein): 1.62%; Human Plasma, Unbound % (human plasma protein): 0.53% |
| CS(=N)(=O)c1cccc(NC(=O)c2cc(C(F)(F)F)nnc2N2CCCC(F)(F)CC2)c1 (stereo not drawn) [Compound E] |  | Rat Plasma, Unbound % (rat plasma protein): 37.8%; Fold increase vs Comparator (rat plasma unbound) (rat plasma protein; ratio of unbound % sulfoximine / comparator sulfonamide): 2.4× |
| Cc1nc(N2CCCC(F)(F)CC2)c(C(=O)Nc2ccnc(S(N)(=O)=O)c2)cc1C(F)(F)F [Compound A, reference compound] |  | Rat Plasma, Unbound % (rat plasma protein): 0.52%; Human Plasma, Unbound % (human plasma protein): 0.24% |
| Cc1c(C(=O)Nc2ccnc([S@](C)(=N)=O)c2)c(N2CCCC(F)(F)CC2)nc(C2CC2)c1C(F)(F)F [Example 220, (R)-6-cyclopropyl-2-(4,4-difluoroazepan-1-yl)-4-methyl-N-(2-(S-methylsulfonimidoyl)pyridin-4-yl)-5-(trifluoromethyl)nicotinamide] | 5 to 50 nM |  |
| NS(=O)(=O)c1cccc(NC(=O)c2cc(C(F)(F)F)nnc2N2CCCC(F)(F)CC2)c1 [Compound B, reference compound] |  | Rat Plasma, Unbound % (rat plasma protein): 15.8%; Human Plasma, Unbound % (human plasma protein): 17.4% |
| Cc1c(C(F)(F)F)cnc(N2CCO[C@@H](C(F)(F)F)C2)c1C(=O)Nc1cccc([S@](C)(=N)=O)c1 [Example 238, 4-methyl-N-(3-((R)—S-methylsulfonimidoyl)phenyl)-5-(trifluoromethyl)-2-((R)-2-(trifluoromethyl)morpholino)nicotinamide] | > 200 nM |  |
| C[S@@](=N)(=O)c1cccc(NC(=O)c2cc(Cl)c(C(F)(F)F)cc2N2CCC(F)(F)CC2)c1 [Example 222, (R)-5-chloro-2-(4,4-difluoropiperidin-1-yl)-N-(3-(S-methylsulfonimidoyl)phenyl)-4-(trifluoromethyl)benzamide] | 5 to 50 nM |  |

Second part, led by results:

| IC50 (human Nav1.8) | SMILES | further results |
| --- | --- | --- |
| 50 to 100 nM | C[S@](=N)(=O)c1cccc(NC(=O)c2cc(Cl)c(C(F)(F)F)cc2N2CCC(C(F)(F)F)CC2)c1 [Example 251, (S)-5-chloro-N-(3-(S-methylsulfonimidoyl)phenyl)-4-(trifluoromethyl)-2-(4-(trifluoromethyl)piperidin-1-yl)benzamide] |  |
| 5 to 50 nM | Cc1c(C(F)(F)F)cnc(N2CCO[C@H](C(F)(F)F)C2)c1C(=O)Nc1cccc([S@](C)(=N)=O)c1 [Example 240, 4-methyl-N-(3-((R)—S-methylsulfonimidoyl)phenyl)-5-(trifluoromethyl)-2-((S)-2-(trifluoromethyl)morpholino)nicotinamide] |  |
| 50 to 100 nM | C[S@@](=N)(=O)c1cc(NC(=O)c2cc(Cl)c(C(F)(F)F)cc2N2CCC(C(F)(F)F)CC2)ccn1 [Example 243, (R)-5-chloro-N-(2-(S-methylsulfonimidoyl)pyridin-4-yl)-4-(trifluoromethyl)-2-(4-(trifluoromethyl)piperidin-1-yl)benzamide] |  |
| 50 to 100 nM | Cc1c(C(F)(F)F)cnc(N2CCCC(F)(F)CC2)c1C(=O)N[C@H]1C[C@H](C(=O)O)C1 [Example 256, (trans)-3-(2-(4,4-difluoroazepan-1-yl)-4-methyl-5-(trifluoromethyl)nicotinamido)cyclobutane-1-carboxylic acid] |  |
| 50 to 100 nM | C[S@@](=N)(=O)c1cc(NC(=O)c2cc(Cl)c(C(F)(F)F)cc2N2CCC(F)(F)CC2)ccn1 [Example 248, (R)-5-chloro-2-(4,4-difluoropiperidin-1-yl)-N-(2-(S-methylsulfonimidoyl)pyridin-4-yl)-4-(trifluoromethyl)benzamide] |  |
| 5 to 50 nM | Cc1c(C(F)(F)F)cnc(N2CCC(F)(F)CC2)c1C(=O)Nc1cccc([S@](C)(=N)=O)c1 [Example 241, (R)-2-(4,4-difluoropiperidin-1-yl)-4-methyl-N-(3-(S-methylsulfonimidoyl)phenyl)-5-(trifluoromethyl)nicotinamide] |  |
| ≤ 5 nM | Cc1c(C(=O)Nc2ccnc([S@](C)(=N)=O)c2)c(N2CCCC(F)(F)CC2)cc(C2CC2)c1C(F)(F)F [Example 250, (R)-4-cyclopropyl-6-(4,4-difluoroazepan-1-yl)-2-methyl-N-(2-(S-methylsulfonimidoyl)pyridin-4-yl)-3-(trifluoromethyl)benzamide] |  |
